Source: US12209145B2, “PCSK9 antagonist compounds” (Merck Sharp & Dohme LLC, priority 2018, dated 2025)
Starred links: 1 amine or outer side, 2 acyl side, 3 side chain; linkers in the order of their positions; H or OH if unused. Positions of bridges follow the written chain, without caps; N, C: chain ends. Non-standard residues stand in square brackets, D forms with d. Residues, ends and D or L forms follow the SMILES beside them. *: point of attachment. X1 = CC1(C)C(/C=C/C=C/C=C2\N(CCCS(=O)(=O)O)c3ccc(S(=O)(=O)O)cc3C2(C)CCCCCC(=O)*)=[N+](CCCS(=O)(=O)[O-])c2ccc(S(=O)(=O)O)cc21; Trp(5-F) = N[C@@H](Cc1c[nH]c2ccc(F)cc12)C(=O)O; mXylylene = c1cc(C[*:1])cc(C[*:2])c1; αMeP = C[C@@]1(C(=O)O)CCCN1; Mpa = O=C(O)CCS

How the values were obtained:
PCSK9 [1] = molecular target: T1, PCSK9 (Homo sapiens, UniProt Q8NBP7); experiment: PCSK9 Alexa FRET Plus TR-FRET assay (displacement of AlexaFluor647 tagged cyclic peptide Reagent B); type: binding; details: for Ki: 0.5 nM biotinylated PCSK9, 960 nM AF cyclic peptide Reagent B, Ki calculated from IC50 and KD of AF peptide
T1 construct: Biotinylated PCSK9 was obtained commercially; purchased
Experimental: (§1) The following is a description of the assays used to determine activity of compounds of the invention, and any comparator compounds reported, toward PCSK9 antagonism. Biotinylated PCSK9 was obtained commercially.
A solution containing 1 nM biotinylated PCSK9+2.5 nM Lance Streptavidin Europium (Strep-Eu) is made in 50 mM HEPES pH 7.4, 0.15 M NaCl, 5 mM CaCl2, 0.01% BSA, and 0.01% Surfactant P20. A separate solution containing 1920 nM of the AlexaFluor tagged cyclic peptide is made in the same buffer system. An Echo is used to transfer 0.075 ul of compound plus 0.675 ul of DMSO to each well of an assay plate followed by the addition of 15 ul of PCSK9+Stept-Eu and 15 ul of AF peptide. The final assay volume is 30.750 ul containing 0.5 nM PCSK9, 1.25 nM Strep-Eu, and 960 nM AF cyclic peptide. The reaction is incubated at room temperature for at least two hours prior to fluorescence measurements using an Envision Multilabel Reader. IC50 values are determined by fitting data to a sigmoidal dose-response curve using nonlinear regression. Ki is then calculated from the IC50 and the KD of AF cyclic peptide. Counts (B-counts) of the europium-labeled PCSK9 are followed to observe if compounds are adversely affecting PCSK9. A fall off of the B-counts is likely indicates a false positive of inhibition. Data from this procedure is reported as “P=‘numerical value’ (nanomolar)”
Activity data obtained by one or both of the above-described procedures is reported for selected example compounds of the invention in the following format: Example No.: A (standard TR Fret)=‘numerical value’; P (Alexa Fret plus standard TR Fret)=‘numerical value’/, note that all values reported are nanomolar.

PCSK9 [2] = molecular target: T1, PCSK9; experiment: PCSK9 Alexa FRET Ultra TR-FRET assay (displacement of AlexaFluor647 tagged cyclic peptide); type: binding; details: for Ki: 0.5 nM biotinylated PCSK9, 960 nM AF cyclic peptide, Ki calculated from IC50 and KD of AF peptide
Experimental: as §1
A solution containing 1 nM biotinylated PCSK9+2.5 nM Lance Streptavidin Europium (Strep-Eu) is made in 50 mM HEPES pH 7.4, 0.15 M NaCl, 5 mM CaCl2, 0.01% BSA, and 0.01% Surfactant P20. A separate solution containing 1920 nM of the AlexaFluor tagged cyclic peptide is made in the same buffer system. An Echo is used to transfer 0.015 ul of compound plus 0.735 ul of DMSO to each well of an assay plate followed by the addition of 15 ul of PCSK9+Stept-Eu and 15 ul of AF peptide. The final assay volume is 30.750 ul containing 0.5 nM PCSK9, 1.25 nM Strep-Eu, and 960 nM AF cyclic peptide. The reaction is incubated at room temperature for at least two hours prior to fluorescence measurements using an Envision Multilabel Reader. IC50 values are determined by fitting data to a sigmoidal dose-response curve using nonlinear regression. Ki is then calculated from the IC50 and the KD of AF cyclic peptide. Counts (B-counts) of the europium-labeled PCSK9 are followed to observe if compounds are adversely affecting PCSK9. A fall off of the B-counts is likely indicates a false positive of inhibition. Data from this procedure is reported as “Ki Ultra=‘numerical value’ (data reported is nanomolar)”

T1 sequence (Q8NBP7 153-692): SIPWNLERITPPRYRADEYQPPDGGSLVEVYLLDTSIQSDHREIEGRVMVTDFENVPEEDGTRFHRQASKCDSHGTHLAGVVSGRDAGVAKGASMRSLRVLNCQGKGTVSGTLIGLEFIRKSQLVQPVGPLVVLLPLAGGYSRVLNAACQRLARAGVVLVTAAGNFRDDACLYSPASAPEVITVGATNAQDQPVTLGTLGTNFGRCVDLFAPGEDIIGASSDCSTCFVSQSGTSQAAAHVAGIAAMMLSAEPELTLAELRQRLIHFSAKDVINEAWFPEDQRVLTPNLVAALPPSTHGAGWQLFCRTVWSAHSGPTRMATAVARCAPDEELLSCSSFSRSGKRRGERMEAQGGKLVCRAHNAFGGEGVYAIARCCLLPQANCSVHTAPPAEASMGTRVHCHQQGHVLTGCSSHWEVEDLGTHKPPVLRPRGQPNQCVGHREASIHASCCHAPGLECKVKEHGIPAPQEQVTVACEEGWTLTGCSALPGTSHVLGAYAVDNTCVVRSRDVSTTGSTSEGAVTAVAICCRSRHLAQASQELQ

Structure (SMILES) | Ki (PCSK9 [1]; Ki Plus) [pM] | Ki (PCSK9 [2]; Ki Ultra) [pM] | Ki (PCSK9 [1]; read-out: Ki Plus) [pM] | Ki (PCSK9 [2]; read-out: Ki Ultra) [pM] | further results
COc1ccc(C[C@@H]2NC(=O)[C@H]([C@@H](C)O)NC(=O)[C@@H]3[C@@H]4CCN3C(=O)[C@@H]3Cc5cn(c6ccc(F)cc56)CCCCCCN(Cc5ccc(cc5)CCNC(=O)[C@]5(C)CCCN5C2=O)C(=O)CCC(=O)N[C@@H](C)C(=O)N[C@H](CNC(=O)CNC(=O)CCCCC[N+](C)(C)C)C(=O)N[C@@H](Cc2cccc(c2)CNC(=O)CO4)C(=O)N3)cc1 [Ex-60] | 6.51 | 5.31 |  |  | 
COc1ccc(C[C@@H]2NC(=O)[C@H]([C@@H](C)O)NC(=O)[C@@H]3[C@@H]4CCN3C(=O)[C@@H]3Cc5cn(c6ccc(F)cc56)CCCCOc5cc(cc(c5)CNC(=O)CCC(=O)N[C@@H](C)C(=O)N[C@H](CNC(=O)CCCCC[N+](C)(C)C)C(=O)N[C@@H](Cc5cccc(c5)CNC(=O)CO4)C(=O)N3)CCNC(=O)[C@]3(C)CCCN3C2=O)cc1 [Ex-40] | 308 | 860 |  |  | 
COc1ccc(C[C@@H]2NC(=O)[C@H]([C@@H](C)O)NC(=O)[C@@H]3[C@@H]4CCN3C(=O)[C@@H]3Cc5cn(c6ccc(F)cc56)C/C=C/CCCN(Cc5ccc(cc5)CCNC(=O)[C@]5(C)CCCN5C2=O)C(=O)CCC(=O)N[C@H]2CN(C(=O)CCOCCOCC[N+](C)(C)C)CCCCC(=O)NC[C@@H](NC2=O)C(=O)N[C@@H](Cc2cccc(c2)CNC(=O)CO4)C(=O)N3)cc1 [Ex-07] |  |  | 59.1 | 67.5 | 
COc1ccc(C[C@@H]2NC(=O)[C@H]([C@@H](C)O)NC(=O)[C@@H]3[C@@H]4CCN3C(=O)[C@@H]3Cc5cn(c6ccc(F)cc56)Cc5cn(nn5)CCN(Cc5ccc(cc5)CCNC(=O)[C@]5(C)CCCN5C2=O)C(=O)CCCCCC(=O)N[C@H](CNC(=O)CCOCCOCC[N+](C)(C)C)C(=O)N[C@@H](Cc2cccc(c2)CNC(=O)CO4)C(=O)N3)cc1 [Ex-16] |  |  | 14.2 | 51.4 | 
COc1ccc(C[C@@H]2NC(=O)[C@H]([C@@H](C)O)NC(=O)[C@@H]3[C@@H]4CCN3C(=O)[C@@H]3Cc5cn(c6ccc(F)cc56)C/C=C/CCCN(Cc5ccc(cc5)CCNC(=O)[C@]5(C)CCCN5C2=O)C(=O)CCC(=O)N[C@@H](CNC(=O)CCOCCOCC[N+](C)(C)C)C(=O)N[C@H](C)C(=O)N[C@@H](Cc2cccc(c2)CNC(=O)CO4)C(=O)N3)cc1 [Ex-05] |  |  | 9.62 | 33 | 
COc1ccc(C[C@@H]2NC(=O)[C@H](C)NC(=O)[C@@H]3[C@@H]4CCN3C(=O)[C@@H]3Cc5cn(c6ccc(F)cc56)CCCCCCN(Cc5ccc(cc5)CCNC(=O)[C@]5(C)CCCN5C2=O)C(=O)CCC(=O)N[C@@H](C)C(=O)N[C@H](CNC(=O)CCCCC[N+](C)(C)C)C(=O)N[C@@H](Cc2cccc(c2)CNC(=O)CO4)C(=O)N3)cc1 [Ex-36] | 7.62 | 5.07 |  |  | 
COc1ccc(C[C@@H]2NC(=O)[C@H]([C@@H](C)O)NC(=O)[C@@H]3[C@@H]4CCN3C(=O)[C@@H]3Cc5cn(c6ccc(F)cc56)Cc5cn(nn5)CCN(Cc5ccc(cc5)CCNC(=O)[C@]5(C)CCCN5C2=O)C(=O)CCCC(=O)N[C@@H](CNC(=O)CCOCCOCC[N+](C)(C)C)C(=O)N[C@H](C)C(=O)N[C@@H](Cc2cccc(c2)CNC(=O)CO4)C(=O)N3)cc1 [Ex-15] |  |  | 103 | 260 | 
COc1ccc(C[C@@H]2NC(=O)[C@H]([C@@H](C)O)NC(=O)[C@@H]3[C@@H]4CCN3C(=O)[C@@H]3Cc5cn(c6ccc(F)cc56)Cc5cn(nn5)C[C@@H](NC(=O)CCC(=O)N[C@@H](C)C(=O)N[C@H](CNC(=O)CCOCCOCC[N+](C)(C)C)C(=O)N[C@@H](Cc5cccc(c5)CNC(=O)CO4)C(=O)N3)c3ccc(cc3)CCNC(=O)[C@]3(C)CCCN3C2=O)cc1 [Ex-10] |  |  | 5.74 | 24.9 | 
COc1ccc(C[C@@H]2NC(=O)[C@H]([C@@H](C)O)NC(=O)[C@@H]3[C@@H]4CCN3C(=O)[C@@H]3Cc5cn(c6ccc(F)cc56)C/C=C\CCCN(Cc5ccc(cc5)CCNC(=O)[C@]5(C)CCCN5C2=O)C(=O)CCC(=O)N[C@@H](CNC(=O)CCOCCOCC[N+](C)(C)C)C(=O)N[C@H](C)C(=O)N[C@@H](Cc2cccc(c2)CNC(=O)CO4)C(=O)N3)cc1 [Ex-04] |  |  | ≤ 5.58 | 4.71 | 
COc1ccc(C[C@@H]2NC(=O)[C@H]([C@@H](C)O)NC(=O)[C@@H]3[C@@H]4CCN3C(=O)[C@@H]3Cc5cn(c6ccc(F)cc56)CCCCCCN(Cc5ccc(cc5)CCNC(=O)[C@]5(C)CCCN5C2=O)C(=O)CCC(=O)N[C@@H](C)C(=O)N[C@H](CNC(=O)CCC(=O)NC2OC(CO)C(O)C(O)C2O)C(=O)N[C@@H](Cc2cccc(c2)CNC(=O)CO4)C(=O)N3)cc1 (some centres unmarked) [Ex-23] |  |  | 9.38 | 2.39 | 
COc1ccc(C[C@@H]2NC(=O)[C@H]([C@@H](C)O)NC(=O)[C@@H]3[C@@H]4CCN3C(=O)[C@@H]3Cc5cn(c6ccc(F)cc56)CCCCOCc5cc(ccc5CNC(=O)CCC(=O)N[C@@H](C)C(=O)N[C@H](CNC(=O)CCCCC[N+](C)(C)C)C(=O)N[C@@H](Cc5cccc(c5)CNC(=O)CO4)C(=O)N3)CCNC(=O)[C@]3(C)CCCN3C2=O)cc1 [Ex-49] | 7.16 | 4.14 |  |  | 
COc1ccc(C[C@@H]2NC(=O)[C@H](Cc3c[nH]cn3)NC(=O)[C@H](CC(=O)O)NC(=O)[C@H](Cc3c[nH]c4ccc(F)cc34)NC(=O)[C@H](Cc3c[nH]c4ccc(F)cc34)NC(=O)[C@@H](C)NC(=O)[C@H](CCCCNC(=O)CCCCCC3(C)/C(=C/C=C/C=C/C4=[N+](CCCS(=O)(=O)[O-])c5ccc(S(=O)(=O)O)cc5C4(C)C)N(CCCS(=O)(=O)O)c4ccc(S(=O)(=O)O)cc43)NC(=O)CCSCc3cccc(c3)CSC[C@@H](C(N)=O)NC(=O)[C@]3(C)CCCN3C2=O)cc1 (some centres unmarked) [Reagent B, reference compound] ([Mpa]K(X1)[dA][Trp(5-F)][Trp(5-F)]DHY(Me)[αMeP]C-NH2; linker 1-10 via mXylylene) |  |  |  |  | Kd (PCSK9 [1]; probe of the Alexa FRET Plus assay): 35000 pM; Kd (PCSK9 [2]; probe of the Alexa FRET Ultra assay): 990 pM
COc1ccc(C[C@@H]2NC(=O)[C@H]([C@@H](C)O)NC(=O)[C@@H]3[C@@H]4CCN3C(=O)[C@@H]3Cc5cn(c6ccc(F)cc56)CCCCN(Cc5ccc(cc5)CCNC(=O)[C@]5(C)CCCN5C2=O)C(=O)CCC(=O)N[C@@H](C)C(=O)N[C@H](CNC(=O)CCOCCOCC[N+](C)(C)C)C(=O)N[C@@H](Cc2cccc(c2)CNC(=O)CO4)C(=O)N3)cc1 [Ex-28] |  |  | ≤ 5.58 |  | 
COc1ccc(C[C@@H]2NC(=O)[C@H]([C@@H](C)O)NC(=O)[C@@H]3[C@@H]4CCN3C(=O)[C@@H]3Cc5cn(c6ccc(F)cc56)CCCCN(Cc5ccc(cc5)CCNC(=O)[C@]5(C)CCCN5C2=O)C(=O)CCC(=O)N[C@@H](C)C(=O)N[C@H](CNC(=O)CCC(=O)NC2OC(CO)C(O)C(O)C2O)C(=O)N[C@@H](Cc2cccc(c2)CNC(=O)CO4)C(=O)N3)cc1 (some centres unmarked) [Ex-27] |  |  | 5.58 | 3.01 | 
COc1ccc(C[C@@H]2NC(=O)[C@H]([C@@H](C)O)NC(=O)[C@@H]3[C@@H]4CCN3C(=O)[C@@H]3Cc5cn(c6ccc(F)cc56)CCCCCCN(Cc5ccc(cc5)CCNC(=O)[C@]5(C)CCCN5C2=O)C(=O)CCC(=O)N[C@@H](C)C(=O)N[C@H](CNC(=O)CCCCCCCC[N+](C)(C)C)C(=O)N[C@@H](Cc2cccc(c2)CNC(=O)CO4)C(=O)N3)cc1 [Ex-61] | 7.47 | 6.54 |  |  | 
COc1ccc(C[C@@H]2NC(=O)[C@H]([C@@H](C)O)NC(=O)[C@@H]3[C@@H]4CCN3C(=O)[C@@H]3Cc5cn(c6ccc(F)cc56)CCCCCN(CCOc5ccc(cc5)CCNC(=O)[C@]5(C)CCCN5C2=O)C(=O)CCC(=O)N[C@@H](C)C(=O)N[C@H](CNC(=O)CCCCC[N+](C)(C)C)C(=O)N[C@@H](Cc2cccc(c2)CNC(=O)CO4)C(=O)N3)cc1 [Ex-41] | 6.97 | 6.28 |  |  | 
COc1ccc(C[C@@H]2NC(=O)[C@H]([C@@H](C)O)NC(=O)[C@@H]3[C@@H]4CCN3C(=O)[C@@H]3Cc5cn(c6ccc(F)cc56)CCCCCCN(Cc5ccc(cc5)CCNC(=O)[C@]5(C)CCCN5C2=O)C(=O)CCC(=O)N[C@@H](C)C(=O)N[C@H](CNC(=O)CCOCC[N+](C)(C)C)C(=O)N[C@@H](Cc2cccc(c2)CNC(=O)CO4)C(=O)N3)cc1 [Ex-31] | < 5.58 |  |  |  | 
